Results reported in US20260092074A1, “Annelated Pyridines as Steroidogenesis Inhibitors, Preparation Method and Use Thereof” (Guangzhou Vinnocent Pharmaceutical Limited, priority 2022, published 2026).
pIC50: −log10 of the molar value.

How the values were obtained:
human CYP11B1 = target: T1, human CYP11B1 (Homo sapiens, UniProt P15538); test: Inhibition of hCYP11B1 in transfected V79 cells; type: cell-based; conditions: hamster V79 cells expressing human CYP11B1; substrate 11-deoxycortisol 200 nM
T1 construct: expressed in transfected cells
T1 sequence (P15538 25-503): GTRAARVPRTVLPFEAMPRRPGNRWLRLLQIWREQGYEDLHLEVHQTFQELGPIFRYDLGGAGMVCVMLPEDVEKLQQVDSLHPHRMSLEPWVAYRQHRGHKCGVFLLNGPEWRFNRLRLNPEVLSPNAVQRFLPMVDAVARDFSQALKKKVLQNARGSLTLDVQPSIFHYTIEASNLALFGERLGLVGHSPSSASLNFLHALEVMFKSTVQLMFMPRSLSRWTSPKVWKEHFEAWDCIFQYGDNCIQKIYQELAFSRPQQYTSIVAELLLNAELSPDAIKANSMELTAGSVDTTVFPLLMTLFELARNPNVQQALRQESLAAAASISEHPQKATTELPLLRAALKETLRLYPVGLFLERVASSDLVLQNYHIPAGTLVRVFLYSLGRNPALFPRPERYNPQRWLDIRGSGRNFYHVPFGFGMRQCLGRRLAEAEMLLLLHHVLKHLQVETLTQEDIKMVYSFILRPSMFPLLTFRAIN
Summary of the method: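 Reactions started with 200 nM 11-deoxycortisol, ran for 30 min and were stopped with ethyl acetate, after a 2 h compound preincubation. The host was stably transfected V79 hamster cells carrying human CYP11B1 plus rat P450 reductase. Percent inhibition, from LC-MS/MS or HPLC (260 nm) quantitation of substrate and product, gave the IC50.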

human CYP11B2 = target: T2, human CYP11B2 (Homo sapiens, UniProt P19099); test: Inhibition of hCYP11B2 in transfected V79 cells; type: cell-based; conditions: hamster V79 cells expressing human CYP11B2; substrate 11-deoxycorticosterone 200 nM
T2 construct: expressed in transfected cells
T2 sequence (P19099 25-503): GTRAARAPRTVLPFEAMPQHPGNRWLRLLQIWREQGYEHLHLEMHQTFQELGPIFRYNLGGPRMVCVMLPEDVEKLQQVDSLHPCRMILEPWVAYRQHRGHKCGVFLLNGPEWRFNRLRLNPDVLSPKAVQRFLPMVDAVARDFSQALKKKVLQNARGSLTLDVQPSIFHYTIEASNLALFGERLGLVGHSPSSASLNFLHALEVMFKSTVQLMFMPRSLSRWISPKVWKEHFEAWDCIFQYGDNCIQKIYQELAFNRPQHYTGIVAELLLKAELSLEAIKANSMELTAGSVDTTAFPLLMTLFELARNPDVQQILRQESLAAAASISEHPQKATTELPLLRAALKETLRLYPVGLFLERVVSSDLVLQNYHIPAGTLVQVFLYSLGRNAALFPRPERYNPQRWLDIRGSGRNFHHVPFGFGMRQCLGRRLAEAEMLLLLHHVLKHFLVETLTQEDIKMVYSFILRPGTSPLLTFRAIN
Summary of the method: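 The substrate (200 nM, 30 min) was added after a 2 hour compound pre-incubation in lentivirus-transduced V79 cells stably expressing human CYP11B2 plus rat NADPH-P450 reductase.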

pIC50 (human CYP11B1)	pIC50 (human CYP11B2)	Compound
9.25	9.62	Cc1ccc(S(=O)(=O)N2CCc3c(-c4ccc(C#N)cc4)cncc32)cc1 [C1, 4-(1-Tosyl-2,3-dihydro-1H-pyrrolo[2,3-c]pyridin-4-yl)benzonitrile]
7.01	8.30	N#Cc1ccc(-c2cncc3c2OCCN3S(=O)(=O)c2ccc(C#N)cc2)cc1 [O130, 4-((8-(4-Cyanophenyl)-2,3-dihydro-4H-pyrido[4,3-b][1,4]oxazin-4-yl)sulfonyl)benzonitrile]
8.28	9.22	CN1CCN(S(=O)(=O)c2ccc(C#N)cc2)c2cncc(-c3ccc(C#N)cc3)c21 [N4, 4-((8-(4-Cyanophenyl)-1-methyl-2,3-dihydropyrido[3,4-b]pyrazin-4 (1H)-yl)sulfonyl)benzonitrile]
7.31	8.10	O=C(c1ccc(F)cc1)n1ccc2c(-c3ccc4ncoc4c3)cncc21 [E38, (4-(Benzo[d]oxazol-6-yl)-1H-pyrrolo[2,3-c]pyridin-1-yl)(4-fluorophenyl)methanone]
9.30	9.52	N#Cc1ccc(-c2cncc3c2ccn3S(=O)(=O)c2cccc([N+](=O)[O-])c2)cc1 [E13, 4-(1-((3-Nitrophenyl)sulfonyl)-1H-pyrrolo[2,3-c]pyridin-4-yl)benzonitrile]
8.70	10.40	N#Cc1ccc(-c2cncc3c2OCCN3S(=O)(=O)c2ccc(C(F)(F)F)cc2)cc1 [O11, 4-(4-((4-(Trifluoromethyl)phenyl)sulfonyl)-3,4-dihydro-2H-pyrido[4,3-b][1,4]oxazin-8-yl)benzonitrile]
7.00	8.89	N#Cc1ccc(-c2cncc3c2OCCN3C(=O)C2CN(S(=O)(=O)c3cccc(C#N)c3)C2)cc1 [O74, 3-((3-(8-(4-Cyanophenyl)-3,4-dihydro-2H-pyrido[4,3-b][1,4]oxazine-4-carbonyl)azetidin-1-yl)sulfonyl)benzonitrile]
6.52	8.34	N#Cc1ccc(-c2cncc3c2CCN3C(=O)c2ccccc2F)cc1 [C31, 4-(1-(2-Fluorobenzoyl)-2,3-dihydro-1H-pyrrolo[2,3-c]pyridin-4-yl)benzonitrile]
6.17	7.49	O=C(c1ccc(F)cc1)n1ccc2c(-c3ccc4occc4c3)cncc21 [E33, (4-(Benzofuran-5-yl)-1H-pyrrolo[2,3-c]pyridin-1-yl)(4-fluorophenyl)methanone]
6.16	7.49	CN1C(=O)CCc2cc(-c3cncc4c3SCCN4S(=O)(=O)c3ccc(C#N)cc3)cc(F)c21 [S52, 4-((8-(8-Fluoro-1-methyl-2-oxo-1,2,3,4-tetrahydroquinolin-6-yl)-2,3-dihydro-4H-pyrido[4,3-b][1,4]thiazin-4-yl)sulfonyl)benzonitrile]
6.17	7.34	N#CN1CCN(c2cncc3c2OCCN3C(=O)C2CN(Cc3cccc(F)c3)C2)CC1 [O98, 4-(4-(1-(3-Fluorobenzyl)azetidine-3-carbonyl)-3,4-dihydro-2H-pyrido[4,3-b][1,4]oxazin-8-yl)piperazine-1-carbonitrile]
8.14	8.82	COc1ccc(S(=O)(=O)N2CCSc3c(-c4cccc(Cl)c4)cncc32)cc1 [S29, 8-(3-Chlorophenyl)-4-((4-methoxyphenyl)sulfonyl)-3,4-dihydro-2H-pyrido[4,3-b][1,4]thia zine]
5.38	7.04	O=C(C1CN(Cc2cccc(F)c2)C1)N1CCOc2c(-c3cc4ccc(Cl)cc4[nH]3)cncc21 [O91, (8-(6-Chloro-1H-indol-2-yl)-2,3-dihydro-4H-pyrido[4,3-b][1,4]oxazin-4-yl)(1-(3-fluorobenzyl)azetidin-3-yl)methanone]
9.22	10.00	N#Cc1ccc(-c2cncc3c2ccn3S(=O)(=O)c2ccc(Cl)cc2)cc1 [E8, 4-(1-((4-Chlorophenyl)sulfonyl)-1H-pyrrolo[2,3-c]pyridin-4-yl)benzonitrile]
6.56	8.19	N#Cc1ccc(-c2cncc3c2CCN3C(=O)Cc2ccccc2F)cc1 [C67, 4-(1-(2-(2-Fluorophenyl)acetyl)-2,3-dihydro-1H-pyrrolo[2,3-c]pyridin-4-yl)benzonitrile]
5.38	7.18	O=C(C1CN(Cc2cccc(F)c2)C1)N1CCOc2c(N3CCn4cnnc4C3)cncc21 [O135, (8-(5,6-Dihydro-[1,2,4]triazolo[4,3-a]pyrazin-7 (8H)-yl)-2,3-dihydro-4H-pyrido[4,3-b][1,4]oxazin-4-yl)(1-(3-fluorobenzyl)azetidin-3-yl)methanone]
6.95	7.46	N#Cc1ccc(-c2cncc3c2CCN3C(=O)Cc2ccc(C(F)(F)F)cc2)cc1 [C75, 4-(1-(2-(4-(Trifluoromethyl)phenyl)acetyl)-2,3-dihydro-1H-pyrrolo[2,3-c]pyridin-4-yl)benzonitrile]
< 5.30	6.33	N#Cc1ccc(-c2cncc3c2SCCN3Cc2ccc(F)cc2)cc1 [S2, 4-(4-(4-Fluorobenzyl)-3,4-dihydro-2H-pyrido[4,3-b][1,4]thiazin-8-yl)benzonitrile]
6.56	7.68	N#Cc1ccc(-c2cncc3c2OCCN3C(=O)c2ccc(Cl)cc2)cc1 [O28, 4-(4-(4-Chlorobenzoyl)-3,4-dihydro-2H-pyrido[4,3-b][1,4]oxazin-8-yl)benzonitrile]
7.32	9.30	O=C1COc2ccc(S(=O)(=O)N3CCSc4c(-c5cc6cc(Cl)ccc6o5)cncc43)cc2N1 [S59, 6-((8-(5-Chlorobenzofuran-2-yl)-2,3-dihydro-4H-pyrido[4,3-b][1,4]thiazin-4-yl)sulfonyl)-2H-benzo[b][1,4]oxazin-3 (4H)-one]
11.00	11.00	N#Cc1ccc(-c2cncc3c2CCN3S(=O)(=O)c2ccccc2)cc1 [C21, 4-(1-(Phenylsulfonyl)-2,3-dihydro-1H-pyrrolo[2,3-c]pyridin-4-yl)benzonitrile]
6.11	8.30	N#CC12CC(S(=O)(=O)N3CCSc4c(-c5cc6cc(Cl)ccc6o5)cncc43)(C1)C2 [S65, 3-((8-(5-Chlorobenzofuran-2-yl)-2,3-dihydro-4H-pyrido[4,3-b][1,4]thiazin-4-yl)sulfonyl)bicyclo[1.1.1]pentane-1-carbonitrile]
7.04	9.05	Cc1cccc(CC(=O)N2CCc3c(-c4ccc(C#N)cc4)cncc32)c1 [C66, 4-(1-(2-(m-Tolyl)acetyl)-2,3-dihydro-1H-pyrrolo[2,3-c]pyridin-4-yl)benzonitrile]
8.60	9.22	N#Cc1ccc(-c2cncc3c2OCCN3C(=O)C2CN(S(=O)(=O)c3ccc(F)cc3)C2)cc1 [O60, 4-(4-(1-((4-Fluorophenyl)sulfonyl)azetidine-3-carbonyl)-3,4-dihydro-2H-pyrido[4,3-b][1,4]oxazin-8-yl)benzonitrile]
5.69	7.66	N#Cc1ccc(-c2cncc3c2OCCN3C(=O)N2CC(Cc3cccc(F)c3)C2)cc1 [O136, 4-(4-(3-(3-Fluorobenzyl)azetidine-1-carbonyl)-3,4-dihydro-2H-pyrido[4,3-b][1,4]oxazin-8-yl)benzonitrile]
7.23	9.10	N#Cc1ccc(-c2cncc3c2OCCN3S(=O)(=O)C2CN(Cc3cccc(F)c3)C2)cc1 [O122, 4-(4-((1-(3-Fluorobenzyl)azetidin-3-yl)sulfonyl)-3,4-dihydro-2H-pyrido[4,3-b][1,4]oxazin-8-yl)benzonitrile]
5.87	6.67	O=C(c1ccccc1F)N1CCc2c(-c3cc4ccccc4s3)cncc21 [C61, (4-(Benzo[b]thiophen-2-yl)-2,3-dihydro-1H-pyrrolo[2,3-c]pyridin-1-yl)(2-fluorophenyl)methanone]
7.66	9.10	N#Cc1ccc(-c2cncc3c2SCCN3S(=O)(=O)C2CN(C(=O)c3ccc(F)cc3)C2)cc1 [S68, 4-(4-((1-(4-Fluorobenzoyl)azetidin-3-yl)sulfonyl)-3,4-dihydro-2H-pyrido[4,3-b][1,4]thiazin-8-yl)benzonitrile]
